How the values were obtained:
[1] = system: TNFα production in human whole blood; experiment: Inhibitory activity on LPS-induced TNFα production in human whole blood; assay type: cell-based; conditions: LPS stimulation, 37° C., 5 hours
Experimental: Inhibitory activities of the arylmethylene urea derivatives according to the present invention to the production of TNFα induced by stimulation with a lipopolysaccharide (LPS) were investigated using human whole blood.
After mixing each of the compounds of the present invention with human blood in a 96-well flat-bottom plate, the lipopolysaccharide (LPS) was added and the mixture was allowed to react at 37° C. for 5 hours. After the reaction, the resulting mixture was centrifuged at room temperature for 15 minutes, and supernatant of the resultant was recovered. For the quantification of TNFα in the supernatant, human cytokine kit (CIS biointernational) was used.

[2] = system: rhythmic bladder contractions; experiment: Rhythmic bladder contractions model in anesthetized rats; assay type: in vivo, SD rats; conditions: i.v., 10 mg/kg; 10 minutes before and after administration; FIG. 2
Description: Using anesthetized rat rhythmic bladder contractions model, the inhibitory effect of the arylmethylene urea derivatives of the present invention on the detrusor hyperreflexia was investigated.
Female SD rats were anesthetized with an intraperitoneal injection of urethane (1.0 g/kg). A polyethylene tube was inserted from external urethral orifice into the bladder and the tube was fixed by ligating. The other end of the tube was equipped with a three-necked cock, and one of the necks thereof was connected to a pressure transducer for the measurement of intravesical pressure and the other neck was connected to a syringe for the infusion of physiological saline into the bladder. Thirty minutes after the surgery was completed, physiological saline in appropriate volume was infused via the tube in order to induce rhythmic bladder contractions. After stable rhythmic bladder contractions were obtained, a solution of each test compound or the solvent thereof was administered from a caudal vein in a volume of 0.5 mL/kg, and the effect on the frequency of bladder contractions was investigated. As the test compounds, the compounds of Examples 2 and 9 were used.
In each of the figures, the ordinate indicates the number of rhythmic bladder contractions for 10 minutes before and after administration of the compound.

DSS-induced colitis = experiment: Dextran sulfate sodium (DSS)-induced colitis model of mice, rectal bleeding score; assay type: in vivo, BALB/c mice; conditions: 30 mg/kg orally every day from Day 27 to Day 31; for amelioration of symptoms / improvement in the rectal bleeding score (in words): Day 32; for rectal bleeding score on Day 32 (0: occult blood-negative, 2: occult blood-positive, 4: apparent bleeding): female BALB/c mice, 3 w/v % DSS
Experimental: (§1) Female BALB/c mice (Japan SLC) of 7 to 9 weeks old were allowed to freely drink 3 w/v % dextran sulfate sodium (DSS) for 5 to 7 days, and then to freely drink sterilized distilled water for 5 days. This procedure was repeated 3 times to induce colitis. The uninduced (background) group was allowed to freely drink sterilized distilled water. The compound described in Example 2 was orally administered to the mice at a dose of 30 mg/kg every day from Day 27 to Day 31 counted from the start of the test, and rectal bleeding was scored (0: occult blood-negative, 2: occult blood-positive, 4: apparent bleeding) by using the method described by Murthy et al (see, for example, Dig Dis Sci., 38, 1722 (1993)).
(§2) On the other hand, the same test as in Example 452 was repeated except that 1-(4-(pyridin-4-yloxy)benzyl)-3-(3-t-butylisoxazol-5-yl)urea (the structural formula thereof is shown below) which is a compound included in WO 04/037789 was used in place of the compound of Example 2. The score on Day 32 (the last day of the test) of the colitis-uninduced group was 0, while the score of the colitis-induced group rose to 1.2±0.2.
as §1, with “Example 10” for “Example 2”
as §2, with “Example 453” for “Example 452”, “that 1-(4-(pyridin-4-yloxy)benzyl)-3-([…])urea” for “that 1-(4-(pyridin-4-yloxy)benzyl)-3-(3-t-butylisoxazol-5-yl)urea”, “Example 10.” for “Example 2.”

| Structure (SMILES) | IC50 [1] | also measured |
| --- | --- | --- |
| Cc1ccc(-n2nc(C(C)(C)C)cc2NC(=O)NCc2cc(F)ccc2Oc2ccnc(N3CCOCC3)n2)cc1 [Example 9, 1-(2-(2-morpholinopyrimidin-4-yloxy)-5-fluorobenzyl)-3-(3-t-butyl-1-p-tolyl-1H-pyrazol-5-yl)urea] | 231 nM | effect on the number of rhythmic bladder contractions [2]: inhibited the rhythmic bladder contractions statistically significantly |
| Cc1ccc(-n2nc(C(C)(C)C)cc2NC(=O)NCc2ccccc2Oc2ccnc(NCCCN(C)C)n2)cc1 [Example 11, 1-(2-(2-(3-(dimethylamino)propylamino)pyrimidin-4-yloxy)benzyl)-3-(3-t-butyl-1-p-tolyl-1H-pyrazol-5-yl)urea] | 249 nM | – |
| CC(=O)N1CCN(c2nccc(Oc3ccccc3CNC(=O)Nc3cc(C(C)(C)C)nn3-c3ccc(C)cc3)n2)CC1 [Example 10, 1-(2-(2-(4-acetylpiperazin-1-yl)pyrimidin-4-yloxy)benzyl)-3-(3-t-butyl-1-p-tolyl-1H-pyrazol-5-yl)urea] | 1040 nM | amelioration of symptoms / improvement in the rectal bleeding score (in words) (DSS-induced colitis): marked amelioration of symptoms was observed; rectal bleeding score on Day 32 (0: occult blood-negative, 2: occult blood-positive, 4: apparent bleeding) (DSS-induced colitis): 0.6±0.3 |
| Cc1ccc(-n2nc(C(C)(C)C)cc2NC(=O)NCc2ccccc2Oc2cc(N3CCCC(C(N)=O)C3)ncn2)cc1 (stereo not shown) [Example 82, 1-(6-(2-(3-(5-t-butyl-2-p-tolyl-2H-pyrazol-3-yl)-ureidomethyl)phenoxy)pyrimidin-4-yl)piperidin-3-carboxylic amide] | 354 nM | – |
| Cc1ccc(-n2nc(C(C)(C)C)cc2NC(=O)NCc2ccccc2Oc2ccnc(N3CCN(C)CC3)n2)cc1 [Example 7, 1-(2-(2-(4-methylpiperazin-1-yl)pyrimidin-4-yloxy)benzyl)-3-(3-t-butyl-1-p-tolyl-1H-pyrazol-5-yl)urea] | 296 nM | melting point: 149.5 °C |
| COc1cc(-n2nc(C(C)(C)C)cc2NC(=O)NCc2ccccc2Oc2ccnc(N3CCOCC3)n2)ccc1C [Example 56, 1-(2-(2-morpholinopyrimidin-4-yloxy)benzyl)-3-(3-t-butyl-1-(3-methoxy-4-methylphenyl)-1H-pyrazol-5-yl)urea] | 485 nM | – |
| Cc1ccc(-n2nc(C(C)(C)C)cc2NC(=O)NCc2ccccc2Oc2cc(N3CCOCC3)ncn2)cc1 [Example 5, 1-(2-(6-morpholinopyrimidin-4-yloxy)benzyl)-3-(3-t-butyl-1-p-tolyl-1H-pyrazol-5-yl)urea] | 843 nM | melting point: 128.5 °C |
| Cc1ccc(-n2nc(C(C)(C)C)cc2NC(=O)NCc2ccccc2Oc2ccnc(NCCC3CCCN3C)n2)cc1 (stereo not shown) [Example 20, 1-(2-(2-(2-(1-methylpyrrolidin-2-yl)ethylamino)pyrimidin-4-yloxy)benzyl)-3-(3-t-butyl-1-p-tolyl-1H-pyrazol-5-yl)urea] | 343 nM | – |
| Cc1ccc(-n2nc(C(C)(C)C)cc2NC(=O)NCc2ccccc2Oc2cc(C)nc(N3CCOCC3)n2)cc1 [Example 98, 1-(2-(6-methyl-2-morpholinopyrimidin-4-yloxy)benzyl)-3-(3-t-butyl-1-p-tolyl-1H-pyrazol-5-yl)urea] | 298 nM | – |
| Cc1ccc(-n2nc(CC(C)(C)C)cc2NC(=O)NCc2ccccc2Oc2ccnc(N3CCOCC3)n2)cc1 [Example 28, 1-(2-(2-morpholinopyrimidin-4-yloxy)benzyl)-3-(3-neopentyl-1-p-tolyl-1H-pyrazol-5-yl)urea] | 513 nM | – |
| Cc1ccc(-n2nc(C(C)(C)C)cc2NC(=O)NCc2ccccc2Oc2ccnc(N3CCC(C(N)=O)CC3)n2)cc1 [Example 14, 1-(4-(2-(((((3-t-butyl-1-p-tolyl-1H-pyrazol-5-yl)amino)carbonyl)amino)methyl)phenoxy)pyrimidin-2-yl)-piperidin-4-carboxylic amide] | 458 nM | – |
| Cc1ccc(-n2nc(C(C)(C)C)cc2NC(=O)NCc2ccccc2Oc2ccnc(N3CCCC(C(N)=O)C3)n2)cc1 (stereo not shown) [Example 13, 1-(4-(2-(((((3-t-butyl-1-p-tolyl-1H-pyrazol-5-yl)amino)carbonyl)amino)methyl)phenoxy)pyrimidin-2-yl)-piperidin-3-carboxylic amide] | 496 nM | – |
| CCN(CC)CCCNc1nccc(Oc2ccccc2CNC(=O)Nc2cc(C(C)(C)C)nn2-c2ccc(C)cc2)n1 [Example 18, 1-(2-(2-(3-(diethylamino)propylamino)pyrimidin-4-yloxy)benzyl)-3-(3-t-butyl-1-p-tolyl-1H-pyrazol-5-yl)urea] | 311 nM | – |
| CC(C)(C)c1cc(NC(=O)NCc2ccc(Oc3ccncc3)cc2)no1 [reference compound] | – | amelioration of symptoms / improvement in the rectal bleeding score (in words) (DSS-induced colitis): improvement in the score was not observed; rectal bleeding score on Day 32 (0: occult blood-negative, 2: occult blood-positive, 4: apparent bleeding) (DSS-induced colitis): 1.3±0.3 |
| Cc1ccc(-n2nc(C(C)(C)C)cc2NC(=O)NCc2ccccc2Oc2ccnc(NCCCN3CCCC3=O)n2)cc1 [Example 6, 1-(2-(2-(3-(2-oxo-pyrrolidin-1-yl)propylamino)pyrimidin-4-yloxy)benzyl)-3-(3-t-butyl-1-p-tolyl-1H-pyrazol-5-yl)urea] | 119 nM | – |
| Cc1ccc(-n2nc(C(C)(C)C)cc2NC(=O)NCc2cc(F)cc(C)c2Oc2ccnc(Cl)n2)cc1 [Example 85, 1-(2-(2-chloropyrimidin-4-yloxy)-3-methyl-5-fluorobenzyl)-3-(3-t-butyl-1-p-tolyl-1H-pyrazol-5-yl)urea] | 422 nM | – |
| CC(C)(C)c1cc(NC(=O)NCc2ccc(Oc3ccncc3)cc2)on1 [1-(4-(pyridin-4-yloxy)benzyl)-3-(3-t-butylisoxazol-5-yl)urea, reference compound] | – | amelioration of symptoms / improvement in the rectal bleeding score (in words) (DSS-induced colitis): improvement in the score was not observed; rectal bleeding score on Day 32 (0: occult blood-negative, 2: occult blood-positive, 4: apparent bleeding) (DSS-induced colitis): 1.1±0.2 |
| COCCN1CCN(c2nccc(Oc3ccccc3CNC(=O)Nc3cc(C(C)(C)C)nn3-c3ccc(C)cc3)n2)CC1 [Example 12, 1-(2-(2-(4-(2-methoxyethyl)piperazin-1-yl)pyrimidin-4-yloxy)benzyl)-3-(3-t-butyl-1-p-tolyl-1H-pyrazol-5-yl)urea] | 268 nM | – |
